According to PMC4191062, “Development of αGlcN(1↔1)αMan-Based Lipid A Mimetics as a Novel Class of Potent Toll-like Receptor 4 Agonists” (Journal of Medicinal Chemistry, 2014):

Tested on: bone marrow-derived macrophages (BMDM)
Experiment: TNF-α and IL-6 production in mouse bone marrow-derived macrophages (ELISA)
Assay type: cell-based, C57BL/6J mice
Conditions: mBMDM, 1 nM (1.8 ng/mL), 16 h
Experimental: The ability of Lipid A mimetics 1–3 to induce the production of TNF-α and IL-6 from bone marrow-derived macrophages (BMDM) in mice was subsequently examined and compared to that of synthetic E. coli Lipid A and E. coli MPLA, which are reliable positive controls due to their chemical purity and homogeneity (Figure 6). […] Likewise, 1 nM (1.8 ng/mL) of 1 or 2 triggered the release of a 3-fold higher amount of IL-6 (1500 pg/mL) compared to Lipid A (500 pg/mL).
Bone-marrow-derived microphages (BMDMs) were isolated and differentiated from the bone marrow of C57BL/6J mice. The bone marrow was flushed from femur and fibia with RPMI media. The erythrocytes were lysed with 0.88% ammonium chloride, 15 min at 37 °C. A single-cell suspension of the bone marrow cells was then seeded in cell culture flasks at a concentration of 1 × 10^6 cells/mL in RPMI supplemented with 20% FBS and 40 ng/mL recombinant M-CSF. The cell culture medium was changed on day 3. On day 6, the differentiated cells were trypsinized, counted, and seeded in 24-well plates at a concentration of 1 × 10^6 cells/mL in RPMI supplemented with 10% FBS. After 24 h, the cells were stimulated with Lipid A mimetics 1–3 and with synthetic E. coli Lipid A/MPLA (E. coli O111:B4 LPS was used as positive control) for 16 h. The nanomolar concentrations of 1–3 were calculated according to the MW of the synthetic compounds. The supernatants were then tested for cytokines using Ready-Set-Go ELISA kits (eBioscience).

`CCCCCCCCCCCCCC(=O)O[C@H](CCCCCCCCCCC)CC(=O)N[C@H]1[C@H](OC[C@H]2O[C@H](OP(=O)(O)O)[C@H](NC(=O)C[C@H](O)CCCCCCCCCCC)[C@@H](OC(=O)C[C@H](O)CCCCCCCCCCC)[C@@H]2O)O[C@H](CO)[C@@H](OP(=O)(O)O)[C@@H]1OC(=O)C[C@@H](CCCCCCCCCCC)OC(=O)CCCCCCCCCCCCC` [Lipid A] was tested, and the IL-6 release was 500 pg/mL.
